Results published in paper PMC4327905 (Chemico-biological interactions, 2015).
pKd: −log10 of the molar value. Structures can show the parent of a compound that is named as a salt.

molecular target: T1, transthyretin (Homo sapiens, UniProt P02766); assay: acid-induced amyloid fibril formation, turbidity at […] nm, […] compound and […] TTR; format: biochemical

Row | SMILES | Fibril Formation (%)
1 | Oc1cccc(-c2ccc(Cl)cc2)c1 [3′-OHPCB 3, 4′-chloro-biphenyl-3-ol] | 52.3 % fibril formation
2 | O=S(=O)(O)Oc1cccc(-c2ccc(Cl)cc2)c1 [3′-PCB 3 sulfate, 4-chloro-3′-sulfooxy-biphenyl] | 30.7 % fibril formation
3 | Oc1ccc(-c2cccc(Cl)c2)cc1Cl [4-OHPCB 11, 3,3′-dichloro-biphenyl-4-ol] | 7.5 % fibril formation
4 | O=S(=O)(O)Oc1ccc(-c2cccc(Cl)c2)cc1Cl [4-PCB 11 sulfate, 3,3′-dichloro-4-sulfooxy-biphenyl] | 8.3 % fibril formation
5 | O=S(=O)(O)Oc1ccc(-c2ccc(Cl)c(Cl)c2)c(Cl)c1 [4-PCB 33 sulfate, 2,3′,4′-trichloro-4-sulfooxy-biphenyl] | 12.7 % fibril formation
6 | Oc1c(Cl)cc(-c2ccc(Cl)c(Cl)c2)cc1Cl [4′-OHPCB 79, 3,3′,4′,5-tetrachloro-biphenyl-4-ol, reference compound] | 32.2 % fibril formation
7 | O=S(=O)(O)Oc1ccc(-c2ccc(Cl)cc2)cc1 [4′-PCB 3 sulfate, 4-chloro-4′-sulfooxy-biphenyl] | 37.2 % fibril formation
8 | O=S(=O)(O)Oc1ccc(-c2cc(Cl)ccc2Cl)cc1Cl [4′-PCB 26 sulfate, 2,3′,5-trichloro-4′-sulfooxy-biphenyl] | 10.5 % fibril formation
9 | O=C(O)c1ccccc1Nc1cccc(C(F)(F)F)c1 [Flufenamic acid, reference compound] | 22.3 % fibril formation

molecular target: T1, transthyretin; assay: ANS fluorescence displacement; format: binding

Row | SMILES | pKd
10 | O=S(=O)(O)Oc1ccc(-c2ccc(Cl)cc2)c(Cl)c1 [4-PCB 8 sulfate, 2,4′-dichloro-4-sulfooxy-biphenyl] | 8.37
